This assay has as its target T1, IRAK-4 (Homo sapiens, UniProt Q9NWZ3).
T1 sequence (Q9NWZ3 1-460): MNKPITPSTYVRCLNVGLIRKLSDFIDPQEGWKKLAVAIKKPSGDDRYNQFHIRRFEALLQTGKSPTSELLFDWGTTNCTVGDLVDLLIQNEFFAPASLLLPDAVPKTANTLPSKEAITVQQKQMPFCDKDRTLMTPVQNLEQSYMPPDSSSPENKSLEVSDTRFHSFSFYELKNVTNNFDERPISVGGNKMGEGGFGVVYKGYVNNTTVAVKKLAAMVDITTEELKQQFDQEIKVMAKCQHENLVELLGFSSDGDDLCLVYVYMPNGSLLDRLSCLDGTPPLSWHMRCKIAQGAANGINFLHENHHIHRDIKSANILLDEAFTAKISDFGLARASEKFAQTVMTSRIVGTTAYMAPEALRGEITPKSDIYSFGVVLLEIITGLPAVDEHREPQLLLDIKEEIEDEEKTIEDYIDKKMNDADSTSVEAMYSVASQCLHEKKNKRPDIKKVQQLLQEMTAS
The experiment in a line: IRAK-4 ELISA, PBMC degradation. Conditions: treated overnight. The format is cell-based. Also on record: endogenous in cells; host or cells: PBMC. Here is the method: Reagents: Human IRAK-4 Matched Antibody Pair Kit (Abcam ab218182) and ELISA Accessory Pack (Abcam ab210905).
Cell Treatment and Lysis:
1. OCI-Ly10: 200,000 cells are seeded at 1×10^6/ml in 96-well U-bottom plates 200 ul per well, treated with compound the same day. Incubate overnight. 2. PBMC: 800,000 cells are seeded at 2×10^6/ml in 96-well U-bottom deep-well plates, 400 ul per well, treated with compound the same day. Incubate overnight.
Cell lysate is collected and analyzed by ELISA for IRAK-4 levels.
In general terms: ELISA stands for enzyme-linked immunosorbent assay.

What is called DC50 is the concentration giving 50% degradation. The term Dmax denotes the greatest extent of degradation seen. Higher therefore signals a fuller loss of target. Regarding `CC(C)Oc1cc2c(cc1NC(=O)c1cnn3cccnc13)CN(C1CCN(CCOCCOc3ccc4c(c3)CN(C3CCC(=O)NC3=O)C4=O)CC1)C2=O` (stereo not drawn) [Example 2], the DC50 is less than 1 nM, the Dmax is no less than 90% and the “PBMC DC90” value is given as 2 nM.
The corresponding values for `CC(C)Oc1cc2c(cc1NC(=O)c1cnn3cccnc13)CN(C1CCN(CCOc3ccc4c(c3)CN(C3CCC(=O)NC3=O)C4=O)CC1)C2=O` (stereo not drawn) [Example 3] are no less than 10 nM, 80 to 90% and 3 nM.
For `COc1cc(CCN2CCC(N3Cc4cc(NC(=O)c5cnn6cccnc56)c(OC(C)C)cc4C3=O)CC2)cc2c1C(=O)N(C1CCC(=O)NC1=O)C2` (stereo not drawn) [Example 11], the DC50 lay in the range of 1 to 5 nM; the Dmax is no less than 90%; the “PBMC DC90” value is “C (C represents a DC90 value ≥25.0 nM and <50 nM)”.
Turning to `COc1cc(N2CC(CN3CCC(N4Cc5cc(NC(=O)c6cnn7cccnc67)c(OC(C)C)cc5C4=O)CC3)C2)cc2c1C(=O)N(C1CCC(=O)NC1=O)C2=O` (stereo not drawn) [Example 14], the DC50 was less than 1 nM, the greatest degradation seen (Dmax) is no less than 90% and the “PBMC DC90” value is “A (A represents a DC90 value <10.0 nM)”.
The corresponding values for `CC(C)Oc1cc2c(cc1NC(=O)c1cnn3cccnc13)CN(C1CCN(CCC3(F)CN(c4ccc5c(c4)C(=O)N(C4CCC(=O)NC4=O)C5=O)C3)CC1)C2=O` (stereo not drawn) [Example 15] are less than 1 nM, 80 to 90% and “A (A represents a DC90 value <10.0 nM)”.
The corresponding values for `CC(C)Oc1cc2c(cc1NC(=O)c1cnn3cccnc13)CN(C[C@@H](F)C1CCN(CC3CN(c4ccc5c(c4)CN(C4CCC(=O)NC4=O)C5=O)C3)CC1)C2=O` (stereo partly drawn) [Example 16] are less than 1 nM, no less than 90% and “A (A represents a DC90 value <10.0 nM)”.
As to `CC(C)Oc1cc2c(cc1NC(=O)c1cnn3cccnc13)CN(C[C@@H](F)C1CN(CC3CCN(c4ccc5c(c4)CN(C4CCC(=O)NC4=O)C5=O)CC3)C1)C2=O` (stereo partly drawn) [Example 17], the DC50 is less than 1 nM, the Dmax was 80 to 90% and the “PBMC DC90” value is listed as “A (A represents a DC90 value <10.0 nM)”.
On the same counts, the results for `CC(C)Oc1cc2c(cc1NC(=O)c1cnn3cccnc13)CN(C[C@@H](F)C1CCN(CC3CCN(c4ccc5c(c4)C(=O)N(C4CCC(=O)NC4=O)C5=O)CC3)CC1)C2=O` (stereo partly drawn) [Example 18] are less than 1 nM, no less than 90% and “A (A represents a DC90 value <10.0 nM)”.
The corresponding values for `CC(C)Oc1cc2c(cc1NC(=O)c1cnn3cccnc13)CN(C[C@@H](F)C1CCN(CC3CCN(c4ccc5c(c4)CN(C4CCC(=O)NC4=O)C5=O)CC3)CC1)C2=O` (stereo partly drawn) [Example 20] are less than 1 nM, no less than 90% and “A (A represents a DC90 value <10.0 nM)”.
On the same counts, the results for `COc1cc(N2CC(CN3CCC(N4Cc5cc(NC(=O)c6cnn7cccnc67)c(OC(C)C)cc5C4=O)CC3)C2)cc2c1C(=O)N(C1CCC(=O)NC1=O)C2` (stereo not drawn) [Example 21] are less than 1 nM, no less than 90% and “A (A represents a DC90 value <10.0 nM)”.
For `CC(C)Oc1cc2c(cc1NC(=O)c1cnn3cccnc13)CN(C1CCC(N3CCC(c4ccc5c(c4)C(=O)N(C4CCC(=O)NC4=O)C5=O)CC3)CC1)C2=O` (stereo not drawn) [Example 25], the DC50 lay within 1 to 5 nM, the Dmax is no less than 90% and the “PBMC DC90” value is given as “A (A represents a DC90 value <10.0 nM)”.
The corresponding values for `O=C1CCC(N2C(=O)c3ccc(N4CCC(CN5CCC(N6Cc7cc(NC(=O)c8cnn9cccnc89)c(OC8CC8)cc7C6=O)CC5)CC4)cc3C2=O)C(=O)N1` (stereo not drawn) [Example 27] are less than 1 nM, no less than 90% and “A (A represents a DC90 value <10.0 nM)”.
For `O=C1CCC(N2Cc3cc(N4CCC(CN5CCC(N6Cc7cc(NC(=O)c8cnn9cccnc89)c(OC8CC8)cc7C6=O)CC5)CC4)ccc3C2=O)C(=O)N1` (stereo not drawn) [Example 28], the half-maximal degradation concentration (DC50) was less than 1 nM, the maximal degradation (Dmax) was no less than 90% and the “PBMC DC90” value is on record as “A (A represents a DC90 value <10.0 nM)”.
As to `O=C1CCC(N2Cc3cc(N4CC(N5CCC(N6Cc7cc(NC(=O)c8cnn9cccnc89)c(N8CCC(N9CCC9)CC8)cc7C6=O)CC5)C4)ccc3C2=O)C(=O)N1` (stereo not drawn) [Example 39], the DC50 is 5 to 10 nM; the Dmax is no less than 90%; the “PBMC DC90” value was “C (C represents a DC90 value ≥25.0 nM and <50 nM)”.
On to `CC(C)Oc1cc2c(cc1NC(=O)c1cnn3cccnc13)CN(C1CCN(CC(F)(F)C3CN(c4ccc5c(c4)C(=O)N(C4CCC(=O)NC4=O)C5=O)C3)CC1)C2=O` (stereo not drawn) [Example 40], for which the 50% degradation concentration (DC50) was 5 to 10 nM, the greatest degradation seen (Dmax) fell in the range of 80 to 90% and the “PBMC DC90” value was “D (D represents a DC90 value ≥50 nM)”.
On the same counts, the results for `CC(C)Oc1cc2c(cc1NC(=O)c1cnn3cccnc13)CN(C1CCN(CC3(O)CN(c4ccc5c(c4)C(=O)N(C4CCC(=O)NC4=O)C5=O)C3)CC1)C2=O` (stereo not drawn) [Example 61] are less than 1 nM, no less than 90% and “A (A represents a DC90 value <10.0 nM)”.
On to `CC(C)Oc1cc2c(cc1NC(=O)c1cnn3cccnc13)CN([C@H]1CC[C@H](OC3CCN(c4ccc5c(c4)C(=O)N(C4CCC(=O)NC4=O)C5=O)CC3)CC1)C2=O` (stereo partly drawn) [Example 65], for which the 50% degradation concentration (DC50) fell in the range of 1 to 5 nM, the Dmax was no less than 90% and the “PBMC DC90” value was “A (A represents a DC90 value <10.0 nM)”.
On to `CC(C)Oc1cc2c(cc1NC(=O)c1cnn3cccnc13)CN([C@H]1CC[C@H](N3CC4(CN(c5ccc6c(c5)C(=O)N(C5CCC(=O)NC5=O)C6=O)C4)C3)CC1)C2=O` (stereo partly drawn) [Example 68], for which the 50% degradation concentration (DC50) was less than 1 nM, the “PBMC DC90” value is given as “A (A represents a DC90 value <10.0 nM)” and the “PBMC Dmax” value is on record as “A (A represents a Dmax value ≥90)”.
For the compound `CC(C)Oc1cc2c(cc1NC(=O)c1cnn3cccnc13)CN(C[C@@H](F)C1CCN(CC3CN(c4ccc5c(c4)C(=O)N(C4CCC(=O)NC4=O)C5=O)C3)CC1)C2=O` (stereo partly drawn) [Example 70], the 50% degradation concentration (DC50) is less than 1 nM, the greatest degradation seen (Dmax) was no less than 90% and the “PBMC DC90” value is “A (A represents a DC90 value <10.0 nM)”.
Regarding `CC(C)Oc1cc2c(cc1NC(=O)c1cnn3cccnc13)CN(C1CCN(C(=O)C3CN(c4ccc5c(c4)C(=O)N(C4CCC(=O)NC4=O)C5=O)C3)CC1)C2=O` (stereo not drawn) [Example 71], the half-maximal degradation concentration (DC50) was 1 to 5 nM; the maximal degradation (Dmax) is no less than 90%; the “PBMC DC90” value is “B (B represents a DC90 value ≥10.0 nM and <25.0 nM)”.
As to `CC(C)Oc1cc2c(cc1NC(=O)c1cnn3cccnc13)CN(C1CCN(CC3(C)CN(c4ccc5c(c4)C(=O)N(C4CCC(=O)NC4=O)C5=O)C3)CC1)C2=O` (stereo not drawn) [Example 72], the half-maximal degradation concentration (DC50) is less than 1 nM, the maximal degradation (Dmax) is 80 to 90% and the “PBMC DC90” value is “A (A represents a DC90 value <10.0 nM)”.
Take `CC(C)Oc1cc2c(cc1NC(=O)c1cnn3ccc(N4CCOCC4)nc13)CN(C1CCN(CC3CN(c4ccc5c(c4)C(=O)N(C4CCC(=O)NC4=O)C5=O)C3)CC1)C2=O` (stereo not drawn) [Example 73]: the DC50 was 5 to 10 nM, the greatest degradation seen (Dmax) lay within 70 to 80% and the “PBMC DC90” value is on record as “D (D represents a DC90 value ≥50 nM)”.
The corresponding values for `CC(C)Oc1cc2c(cc1NC(=O)c1cnn3ccc(N4CCOCC4)nc13)CN(C1CCN(CC3CCN(c4ccc5c(c4)C(=O)N(C4CCC(=O)NC4=O)C5=O)CC3)CC1)C2=O` (stereo not drawn) [Example 74] are 5 to 10 nM, 80 to 90% and “D (D represents a DC90 value ≥50 nM)”.
